Where a name gives a salt, the structure may show the parent alone.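 Dose response: 5 concentrations. Exposure: 48 h. Format: 96-well plates. Endpoint: linear interpolation; highest concentration if not reached. GI50: concentration for 50% inhibition of growth.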 Calls of active or inactive are those of the source. Rule as the data show it: active = GI50 up to about 1.1 µM and inactive = higher.
Assays:
Test in all cases: inhibition of tumour cell growth, NCI panel, 48 h
SNB-78 = test system: SNB-78
OVCAR-5 = test system: OVCAR-5
A498 = test system: A498
SNB-75 = test system: SNB-75
K562 = test system: K562
SK-OV-3 = test system: SK-OV-3
CCRF-CEM = test system: CCRF-CEM
HOP-92 = test system: HOP-92
SK-MEL-28 = test system: SK-MEL-28
LXFL 529 = test system: LXFL 529
M14 = test system: M14
KM-20L2 = test system: KM-20L2
UACC-62 = test system: UACC-62
HT-29 = test system: HT-29
OVCAR-8 = test system: OVCAR-8
XF498 = test system: XF498
IGROV-1 = test system: IGROV-1
DMS-273 = test system: DMS-273
SW-620 = test system: SW-620
SF-539 = test system: SF-539
SK-MEL-5 = test system: SK-MEL-5
M19-MEL = test system: M19-MEL
KM12 = test system: KM12
NCI-H460 = test system: NCI-H460
DMS-114 = test system: DMS-114
LOX IMVI = test system: LOX IMVI
SF-268 = test system: SF-268
SNB-19 = test system: SNB-19
TK-10 = test system: TK-10
786-0 = test system: 786-0
HL-60 = test system: HL-60
SK-MEL-2 = test system: SK-MEL-2
NCI-H23 = test system: NCI-H23
Malme-3M = test system: Malme-3M
HCC 2998 = test system: HCC 2998
RPMI-8226 = test system: RPMI-8226
OVCAR-4 = test system: OVCAR-4
UO-31 = test system: UO-31
ACHN = test system: ACHN
EKVX = test system: EKVX
MOLT-4 = test system: MOLT-4
NCI-H522 = test system: NCI-H522
UACC-257 = test system: UACC-257
A549 = test system: A549
RXF 393 = test system: RXF 393
NCI-H226 = test system: NCI-H226
COLO 205 = test system: COLO 205
HOP-62 = test system: HOP-62
DLD-1 = test system: DLD-1
HCT-116 = test system: HCT-116
SR = test system: SR
HCT-15 = test system: HCT-15
U-251 = test system: U-251
SN12C = test system: SN12C
SF-295 = test system: SF-295
CAKI-1 = test system: CAKI-1
OVCAR-3 = test system: OVCAR-3
HOP-18 = test system: HOP-18

SMILES: COc1ccc2cc3[n+](cc2c1OC)CCc1cc2c(cc1-3)OCO2 [BERBERINE SULFATE]
- GI50 (SNB-78): 34.4 µM (inactive)
- GI50 (OVCAR-5): > 91.8 µM (inactive)
- GI50 (A498): > 100 µM (inactive)
- GI50 (SNB-75): 27.5 µM (inactive)
- GI50 (K562): 14.1 µM (inactive)
- GI50 (SK-OV-3): > 80.9 µM (inactive)
- GI50 (CCRF-CEM): 10.5 µM (inactive)
- GI50 (HOP-92): 23.6 µM (inactive)
- GI50 (SK-MEL-28): 19.3 µM (inactive)
- GI50 (LXFL 529): 4.37 µM (inactive)
- GI50 (M14): 32.5 µM (inactive)
- GI50 (KM-20L2): 30.8 µM (inactive)
- GI50 (UACC-62): 17.8 µM (inactive)
- GI50 (HT-29): 32.6 µM (inactive)
- GI50 (OVCAR-8): 18.1 µM (inactive)
- GI50 (XF498): 14 µM (inactive)
- GI50 (IGROV-1): 36 µM (inactive)
- GI50 (DMS-273): 17.2 µM (inactive)
- GI50 (SW-620): 30.1 µM (inactive)
- GI50 (SF-539): 33.8 µM (inactive)
- GI50 (SK-MEL-5): 5.07 µM (inactive)
- GI50 (M19-MEL): 7.6 µM (inactive)
- GI50 (KM12): 4.88 µM (inactive)
- GI50 (NCI-H460): 17.9 µM (inactive)
- GI50 (DMS-114): 4.33 µM (inactive)
- GI50 (LOX IMVI): 43.1 µM (inactive)
- GI50 (SF-268): 6.15 µM (inactive)
- GI50 (SNB-19): 8.13 µM (inactive)
- GI50 (TK-10): > 100 µM (inactive)
- GI50 (786-0): 51.5 µM (inactive)
- GI50 (HL-60): 14 µM (inactive)
- GI50 (SK-MEL-2): 15.5 µM (inactive)
- GI50 (NCI-H23): 8.34 µM (inactive)
- GI50 (Malme-3M): 9.62 µM (inactive)

SMILES: COc1ccc(CNc2cc(OC)cc(OC)c2)cc1
- GI50 (SNB-78): 38.1 µM (inactive)
- GI50 (SNB-75): > 42 µM (inactive)
- GI50 (HCC 2998): > 100 µM (inactive)
- GI50 (RPMI-8226): 58.9 µM (inactive)
- GI50 (OVCAR-4): 77.1 µM (inactive)
- GI50 (UO-31): 49.2 µM (inactive)
- GI50 (K562): 22.4 µM (inactive)
- GI50 (SK-OV-3): > 80 µM (inactive)
- GI50 (HOP-92): 65.5 µM (inactive)
- GI50 (SK-MEL-28): 44.4 µM (inactive)
- GI50 (LXFL 529): 85.7 µM (inactive)
- GI50 (UACC-62): 87.7 µM (inactive)
- GI50 (OVCAR-8): > 69.8 µM (inactive)
- GI50 (ACHN): > 100 µM (inactive)
- GI50 (EKVX): > 76.6 µM (inactive)
- GI50 (MOLT-4): > 81.8 µM (inactive)
- GI50 (NCI-H522): 35.8 µM (inactive)
- GI50 (XF498): > 100 µM (inactive)
- GI50 (UACC-257): > 91.8 µM (inactive)
- GI50 (SK-MEL-5): 60.5 µM (inactive)
- GI50 (M19-MEL): > 100 µM (inactive)
- GI50 (KM12): 84.3 µM (inactive)
- GI50 (DMS-114): 49 µM (inactive)
- GI50 (SF-268): > 62.1 µM (inactive)
- GI50 (TK-10): > 100 µM (inactive)
- GI50 (786-0): > 52.2 µM (inactive)
- GI50 (HL-60): > 46.5 µM (inactive)
- GI50 (A549): > 100 µM (inactive)
- GI50 (RXF 393): > 68.4 µM (inactive)
- GI50 (SK-MEL-2): > 85.7 µM (inactive)
- GI50 (NCI-H23): > 80.2 µM (inactive)
- GI50 (Malme-3M): > 72.8 µM (inactive)

SMILES: CC(c1ccccc1)N1O[C@]12CC[C@@]1(C)C(CCCC13OCCO3)C2 (some centres not stated)
- GI50 (SNB-78): 20.3 µM (inactive)
- GI50 (NCI-H226): > 100 µM (inactive)
- GI50 (OVCAR-5): > 100 µM (inactive)
- GI50 (SNB-75): 22.1 µM (inactive)
- GI50 (HCC 2998): 75.5 µM (inactive)
- GI50 (RPMI-8226): 35.7 µM (inactive)
- GI50 (OVCAR-4): 17.5 µM (inactive)
- GI50 (UO-31): 18 µM (inactive)
- GI50 (SK-OV-3): > 100 µM (inactive)
- GI50 (COLO 205): 17.8 µM (inactive)
- GI50 (HOP-92): 11.1 µM (inactive)
- GI50 (SK-MEL-28): 47.8 µM (inactive)
- GI50 (M14): 17.6 µM (inactive)
- GI50 (KM-20L2): > 100 µM (inactive)
- GI50 (UACC-62): 19.6 µM (inactive)
- GI50 (HT-29): 21.7 µM (inactive)
- GI50 (OVCAR-8): 16.7 µM (inactive)
- GI50 (HOP-62): > 100 µM (inactive)
- GI50 (ACHN): 16.5 µM (inactive)
- GI50 (DLD-1): 17.1 µM (inactive)
- GI50 (HCT-116): 16.1 µM (inactive)
- GI50 (NCI-H522): 17.2 µM (inactive)
- GI50 (XF498): 22.5 µM (inactive)
- GI50 (SR): 16.7 µM (inactive)
- GI50 (IGROV-1): 3.72 µM (inactive)
- GI50 (HCT-15): 23.3 µM
- GI50 (DMS-273): 19.2 µM (inactive)
- GI50 (SW-620): 16.7 µM (inactive)
- GI50 (SF-539): 56.2 µM (inactive)
- GI50 (UACC-257): 21.4 µM (inactive)
- GI50 (SK-MEL-5): 36.1 µM (inactive)
- GI50 (U-251): 21.1 µM (inactive)
- GI50 (M19-MEL): 23 µM (inactive)
- GI50 (SN12C): 29 µM (inactive)
- GI50 (KM12): 21.3 µM (inactive)
- GI50 (NCI-H460): 20.4 µM (inactive)
- GI50 (DMS-114): 13.4 µM (inactive)
- GI50 (LOX IMVI): 11.8 µM (inactive)
- GI50 (SF-268): 43.6 µM (inactive)
- GI50 (SF-295): 22 µM (inactive)
- GI50 (CAKI-1): 22.2 µM (inactive)
- GI50 (SNB-19): > 100 µM (inactive)
- GI50 (TK-10): 18.3 µM (inactive)
- GI50 (786-0): 19.4 µM (inactive)
- GI50 (A549): 24.5 µM (inactive)
- GI50 (RXF 393): 23.6 µM (inactive)
- GI50 (NCI-H23): 38.4 µM (inactive)
- GI50 (Malme-3M): 32.1 µM (inactive)
- GI50 (OVCAR-3): 18.7 µM (inactive)

SMILES: COC1OC(C)C(OCc2ccccc2)C(OS(=O)(=O)c2ccc(C)cc2)C1OS(=O)(=O)c1ccc(C)cc1 (configuration not stated)
- GI50 (SNB-78): > 100 µM (inactive)
- GI50 (NCI-H226): > 100 µM (inactive)
- GI50 (OVCAR-5): > 100 µM (inactive)
- GI50 (SNB-75): > 100 µM (inactive)
- GI50 (HCC 2998): > 100 µM (inactive)
- GI50 (RPMI-8226): > 100 µM (inactive)
- GI50 (OVCAR-4): > 100 µM (inactive)
- GI50 (UO-31): > 100 µM (inactive)
- GI50 (K562): > 100 µM (inactive)
- GI50 (SK-OV-3): > 100 µM (inactive)
- GI50 (COLO 205): > 100 µM (inactive)
- GI50 (CCRF-CEM): > 100 µM (inactive)
- GI50 (SK-MEL-28): > 100 µM (inactive)
- GI50 (LXFL 529): > 100 µM (inactive)
- GI50 (M14): > 100 µM (inactive)
- GI50 (HOP-18): > 100 µM (inactive)
- GI50 (KM-20L2): > 100 µM (inactive)
- GI50 (HT-29): > 100 µM (inactive)
- GI50 (OVCAR-8): > 100 µM (inactive)
- GI50 (HOP-62): > 100 µM (inactive)
- GI50 (ACHN): > 100 µM (inactive)
- GI50 (DLD-1): > 100 µM (inactive)
- GI50 (EKVX): > 100 µM (inactive)
- GI50 (HCT-116): > 100 µM (inactive)
- GI50 (MOLT-4): > 100 µM (inactive)
- GI50 (NCI-H522): > 100 µM (inactive)
- GI50 (SR): > 100 µM (inactive)
- GI50 (IGROV-1): > 100 µM (inactive)
- GI50 (HCT-15): > 100 µM
- GI50 (DMS-273): > 100 µM (inactive)
- GI50 (SW-620): > 100 µM (inactive)
- GI50 (SF-539): > 100 µM (inactive)
- GI50 (UACC-257): > 100 µM (inactive)
- GI50 (SK-MEL-5): > 100 µM (inactive)
- GI50 (U-251): > 100 µM (inactive)
- GI50 (M19-MEL): > 100 µM (inactive)
- GI50 (SN12C): > 100 µM (inactive)
- GI50 (KM12): > 100 µM (inactive)
- GI50 (NCI-H460): > 100 µM (inactive)
- GI50 (DMS-114): > 100 µM (inactive)
- GI50 (SF-268): > 100 µM (inactive)
- GI50 (SF-295): > 100 µM (inactive)
- GI50 (CAKI-1): 53.5 µM (inactive)
- GI50 (SNB-19): > 100 µM (inactive)
- GI50 (786-0): > 100 µM (inactive)
- GI50 (HL-60): > 100 µM (inactive)
- GI50 (A549): > 100 µM (inactive)
- GI50 (RXF 393): > 100 µM (inactive)
- GI50 (SK-MEL-2): > 100 µM (inactive)
- GI50 (NCI-H23): > 100 µM (inactive)
- GI50 (Malme-3M): > 100 µM (inactive)
- GI50 (OVCAR-3): > 100 µM (inactive)

Source: ChEMBL document CHEMBL1201862, “PubChem BioAssay data set” (2004)
